Patent US11208412B2 (DAEGU-GYEONGBUK MEDICAL INNOVATION FOUNDATION, priority 2017, dated 2021)
Like-named read-outs stand apart in the source and are kept apart here.

What was measured:
Assay in all cases: Kinase selectivity, DiscoverX scanMAX Kinase assay panel (% control)
Type in all cases: binding
[1] = biological target: T1, kinases of the scanMAX Kinase assay panel (Homo sapiens, UniProt O14920); conditions: IKK-beta; 1 uM
T1 construct: purchased DiscoverX Co. (contract measurement) scanMAX Kinase assay panel
T1 sequence (O14920 1-756): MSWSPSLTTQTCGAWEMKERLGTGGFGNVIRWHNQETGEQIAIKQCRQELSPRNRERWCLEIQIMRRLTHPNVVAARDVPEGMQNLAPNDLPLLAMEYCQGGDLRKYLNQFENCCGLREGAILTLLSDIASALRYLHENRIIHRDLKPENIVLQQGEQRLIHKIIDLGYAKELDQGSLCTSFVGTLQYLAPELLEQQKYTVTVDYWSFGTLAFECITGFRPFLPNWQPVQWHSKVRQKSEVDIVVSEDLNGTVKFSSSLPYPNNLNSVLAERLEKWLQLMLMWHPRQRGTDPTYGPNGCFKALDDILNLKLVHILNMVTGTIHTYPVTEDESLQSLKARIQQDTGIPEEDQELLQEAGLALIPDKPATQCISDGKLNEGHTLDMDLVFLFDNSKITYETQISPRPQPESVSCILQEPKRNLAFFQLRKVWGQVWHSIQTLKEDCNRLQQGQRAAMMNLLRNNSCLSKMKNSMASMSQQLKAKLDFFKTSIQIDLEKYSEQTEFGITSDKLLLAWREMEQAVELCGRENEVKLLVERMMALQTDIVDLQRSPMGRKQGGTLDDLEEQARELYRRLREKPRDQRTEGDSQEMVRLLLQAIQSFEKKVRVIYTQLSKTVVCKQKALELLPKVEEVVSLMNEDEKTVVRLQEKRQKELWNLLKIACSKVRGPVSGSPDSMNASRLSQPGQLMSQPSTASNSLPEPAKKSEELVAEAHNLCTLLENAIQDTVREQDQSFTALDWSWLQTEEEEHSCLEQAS
How it was run: (§1)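 Read-out is % control, normalised so a positive-control compound sits at 0% and DMSO at 100%: (test − positive)/(negative − positive)×100. Each kinase received the compound at 1 uM in DMSO. A value below 35% counts as activity.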

[2] = biological target: T2, kinases of the scanMAX Kinase assay panel (Homo sapiens, UniProt P00519, F317L); conditions: 1 uM
T2 construct: purchased DiscoverX Co. (contract measurement) scanMAX Kinase assay panel
How it was run: as §1

[3] = biological target: T3, kinases of the scanMAX Kinase assay panel (Homo sapiens, UniProt P00519, Y253F); conditions: ABL1(Y253F)-phosphorylated; 1 uM
T3 construct: purchased DiscoverX Co. (contract measurement) scanMAX Kinase assay panel
How it was run: as §1

[4] = biological target: T4, kinases of the scanMAX Kinase assay panel (Homo sapiens, UniProt P10721); conditions: 1 uM
T4 construct: purchased DiscoverX Co. (contract measurement) scanMAX Kinase assay panel
How it was run: as §1

[5] = biological target: T5, kinases of the scanMAX Kinase assay panel (Homo sapiens, UniProt P23443); conditions: kinase S6K1; 1 uM in DMSO
T5 construct: purchased DiscoverX Co. (contract measurement) scanMAX Kinase assay panel
How it was run: as §1

[6] = biological target: T6, kinases of the scanMAX Kinase assay panel (Homo sapiens, UniProt P29597); conditions: 1 uM in DMSO
T6 construct: purchased DiscoverX Co. (contract measurement) scanMAX Kinase assay panel
How it was run: as §1

[7] = biological target: T7, kinases of the scanMAX Kinase assay panel (Homo sapiens, UniProt Q13546); conditions: kinase RIPK1; 1 uM in DMSO
T7 construct: purchased DiscoverX Co. (contract measurement) scanMAX Kinase assay panel
T7 sequence (Q13546 1-671): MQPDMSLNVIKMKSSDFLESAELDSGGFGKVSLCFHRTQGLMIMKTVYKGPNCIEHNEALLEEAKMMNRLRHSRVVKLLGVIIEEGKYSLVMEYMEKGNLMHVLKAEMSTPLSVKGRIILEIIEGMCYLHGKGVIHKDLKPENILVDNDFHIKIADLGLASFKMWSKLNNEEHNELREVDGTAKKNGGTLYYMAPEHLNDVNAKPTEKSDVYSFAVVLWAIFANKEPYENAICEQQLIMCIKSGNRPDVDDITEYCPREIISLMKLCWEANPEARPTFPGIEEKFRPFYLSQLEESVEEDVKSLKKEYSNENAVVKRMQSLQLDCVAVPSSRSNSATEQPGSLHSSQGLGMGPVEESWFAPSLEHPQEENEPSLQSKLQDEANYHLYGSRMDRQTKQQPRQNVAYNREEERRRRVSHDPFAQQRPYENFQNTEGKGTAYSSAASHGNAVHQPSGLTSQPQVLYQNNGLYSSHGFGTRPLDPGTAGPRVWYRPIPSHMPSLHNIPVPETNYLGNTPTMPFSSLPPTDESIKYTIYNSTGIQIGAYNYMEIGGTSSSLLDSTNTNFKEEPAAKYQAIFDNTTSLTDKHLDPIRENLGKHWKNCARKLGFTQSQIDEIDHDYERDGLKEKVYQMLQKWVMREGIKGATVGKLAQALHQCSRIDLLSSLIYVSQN
How it was run: as §1

[8] = biological target: T8, kinases of the scanMAX Kinase assay panel (Homo sapiens, UniProt Q9BVS4); conditions: kinase RIOK2; 1 uM in DMSO
T8 construct: purchased DiscoverX Co. (contract measurement) scanMAX Kinase assay panel
How it was run: as §1

[9] = biological target: T9, kinases of the scanMAX Kinase assay panel (Homo sapiens, UniProt Q9H1R3); conditions: MYLK2; 1 uM
T9 construct: purchased DiscoverX Co. (contract measurement) scanMAX Kinase assay panel
How it was run: as §1

[10] = biological target: T10, kinases of the scanMAX Kinase assay panel (Homo sapiens, UniProt Q9HBH9); conditions: MKNK2; 1 uM
T10 construct: purchased DiscoverX Co. (contract measurement) scanMAX Kinase assay panel
How it was run: as §1

[11] = biological target: T11, kinases of the scanMAX Kinase assay panel (Homo sapiens, UniProt Q9NSY1); conditions: BIKE; 1 uM
T11 construct: purchased DiscoverX Co. (contract measurement) scanMAX Kinase assay panel
How it was run: as §1

[12] = biological target: T12, kinases of the scanMAX Kinase assay panel (Homo sapiens, UniProt Q9UM73, L1196M); conditions: ALK(L1196M); 1 uM
T12 construct: purchased DiscoverX Co. (contract measurement) scanMAX Kinase assay panel
How it was run: as §1

[13] = kinase TYK2(JH1domain-catalytic), read-out: % control, TYK2(JH1domain-catalytic)
[14] = kinase TYK2(JH2domain-pseudokinase), read-out: % control, TYK2(JH2domain-pseudokinase)

T11 sequence (Q9NSY1 whole entry): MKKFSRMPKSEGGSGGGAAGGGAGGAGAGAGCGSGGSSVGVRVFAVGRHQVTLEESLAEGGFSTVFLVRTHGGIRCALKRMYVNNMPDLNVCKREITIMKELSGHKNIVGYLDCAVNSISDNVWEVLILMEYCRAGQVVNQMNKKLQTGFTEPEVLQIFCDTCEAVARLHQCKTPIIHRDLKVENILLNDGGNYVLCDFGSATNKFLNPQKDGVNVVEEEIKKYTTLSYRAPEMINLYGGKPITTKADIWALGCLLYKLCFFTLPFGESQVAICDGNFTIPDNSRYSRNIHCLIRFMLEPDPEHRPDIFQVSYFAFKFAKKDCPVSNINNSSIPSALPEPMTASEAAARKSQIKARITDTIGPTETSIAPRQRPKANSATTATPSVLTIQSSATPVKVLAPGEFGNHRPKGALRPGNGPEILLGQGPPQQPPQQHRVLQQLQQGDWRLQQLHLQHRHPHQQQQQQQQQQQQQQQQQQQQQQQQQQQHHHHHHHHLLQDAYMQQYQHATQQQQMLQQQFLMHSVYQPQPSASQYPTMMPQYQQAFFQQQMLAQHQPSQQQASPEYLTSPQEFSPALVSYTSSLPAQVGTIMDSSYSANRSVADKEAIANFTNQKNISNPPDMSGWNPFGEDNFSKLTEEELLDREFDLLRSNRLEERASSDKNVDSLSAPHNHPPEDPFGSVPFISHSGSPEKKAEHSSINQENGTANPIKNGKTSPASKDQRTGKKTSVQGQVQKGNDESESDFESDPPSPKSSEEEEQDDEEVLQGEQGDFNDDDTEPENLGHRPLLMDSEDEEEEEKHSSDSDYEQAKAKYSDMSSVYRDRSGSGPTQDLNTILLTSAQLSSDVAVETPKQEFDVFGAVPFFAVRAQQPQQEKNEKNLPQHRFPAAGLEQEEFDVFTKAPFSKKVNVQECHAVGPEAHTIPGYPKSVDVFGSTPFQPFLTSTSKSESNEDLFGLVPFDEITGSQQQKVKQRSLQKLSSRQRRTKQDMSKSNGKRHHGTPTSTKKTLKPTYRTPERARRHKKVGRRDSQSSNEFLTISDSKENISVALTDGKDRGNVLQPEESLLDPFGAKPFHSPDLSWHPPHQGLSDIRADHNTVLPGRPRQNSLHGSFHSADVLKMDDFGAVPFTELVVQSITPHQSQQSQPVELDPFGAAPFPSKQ
T9 sequence (Q9H1R3 whole entry): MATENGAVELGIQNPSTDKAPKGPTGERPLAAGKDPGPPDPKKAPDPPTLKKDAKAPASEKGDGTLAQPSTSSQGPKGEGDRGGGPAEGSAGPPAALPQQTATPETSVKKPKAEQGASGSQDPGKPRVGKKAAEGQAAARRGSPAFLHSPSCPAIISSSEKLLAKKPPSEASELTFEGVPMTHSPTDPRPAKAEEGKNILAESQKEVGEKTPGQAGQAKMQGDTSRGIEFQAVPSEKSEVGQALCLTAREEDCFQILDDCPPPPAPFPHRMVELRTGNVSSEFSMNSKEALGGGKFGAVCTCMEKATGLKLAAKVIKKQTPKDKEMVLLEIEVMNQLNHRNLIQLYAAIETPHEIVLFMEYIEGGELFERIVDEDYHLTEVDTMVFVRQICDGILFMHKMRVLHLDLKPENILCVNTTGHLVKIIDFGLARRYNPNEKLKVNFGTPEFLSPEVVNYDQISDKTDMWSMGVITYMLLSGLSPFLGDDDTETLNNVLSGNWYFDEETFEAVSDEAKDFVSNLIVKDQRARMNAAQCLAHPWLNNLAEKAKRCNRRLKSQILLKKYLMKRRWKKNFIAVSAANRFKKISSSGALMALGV
T6 sequence (P29597 whole entry): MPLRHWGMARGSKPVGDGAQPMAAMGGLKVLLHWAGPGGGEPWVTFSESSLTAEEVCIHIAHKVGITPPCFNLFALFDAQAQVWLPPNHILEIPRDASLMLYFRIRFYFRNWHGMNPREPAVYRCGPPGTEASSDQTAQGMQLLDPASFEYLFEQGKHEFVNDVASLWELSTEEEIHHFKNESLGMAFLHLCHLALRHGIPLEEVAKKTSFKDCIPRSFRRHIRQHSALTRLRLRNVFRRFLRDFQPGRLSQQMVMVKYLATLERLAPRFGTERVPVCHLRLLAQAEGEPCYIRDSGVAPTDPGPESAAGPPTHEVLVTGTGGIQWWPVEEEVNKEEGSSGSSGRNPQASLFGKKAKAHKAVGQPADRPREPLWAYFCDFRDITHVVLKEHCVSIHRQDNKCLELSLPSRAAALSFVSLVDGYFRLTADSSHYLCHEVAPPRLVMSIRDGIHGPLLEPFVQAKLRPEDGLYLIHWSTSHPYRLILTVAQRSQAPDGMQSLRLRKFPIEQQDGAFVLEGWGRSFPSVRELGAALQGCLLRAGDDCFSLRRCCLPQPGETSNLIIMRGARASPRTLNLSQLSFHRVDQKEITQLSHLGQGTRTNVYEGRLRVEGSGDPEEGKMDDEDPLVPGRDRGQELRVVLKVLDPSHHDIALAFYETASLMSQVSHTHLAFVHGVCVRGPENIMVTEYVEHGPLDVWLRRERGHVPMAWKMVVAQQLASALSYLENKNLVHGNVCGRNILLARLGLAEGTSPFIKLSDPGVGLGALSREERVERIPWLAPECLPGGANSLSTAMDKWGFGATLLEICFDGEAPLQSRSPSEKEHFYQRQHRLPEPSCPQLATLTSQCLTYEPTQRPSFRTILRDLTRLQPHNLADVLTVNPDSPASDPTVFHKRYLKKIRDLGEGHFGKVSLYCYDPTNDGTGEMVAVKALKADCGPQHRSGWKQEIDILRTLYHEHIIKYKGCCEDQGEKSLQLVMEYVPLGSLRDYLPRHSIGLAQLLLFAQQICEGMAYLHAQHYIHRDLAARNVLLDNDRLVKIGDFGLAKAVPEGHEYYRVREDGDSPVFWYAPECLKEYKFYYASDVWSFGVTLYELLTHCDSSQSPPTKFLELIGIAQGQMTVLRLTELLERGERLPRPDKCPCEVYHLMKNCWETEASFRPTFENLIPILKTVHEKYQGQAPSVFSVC
T10 sequence (Q9HBH9 whole entry): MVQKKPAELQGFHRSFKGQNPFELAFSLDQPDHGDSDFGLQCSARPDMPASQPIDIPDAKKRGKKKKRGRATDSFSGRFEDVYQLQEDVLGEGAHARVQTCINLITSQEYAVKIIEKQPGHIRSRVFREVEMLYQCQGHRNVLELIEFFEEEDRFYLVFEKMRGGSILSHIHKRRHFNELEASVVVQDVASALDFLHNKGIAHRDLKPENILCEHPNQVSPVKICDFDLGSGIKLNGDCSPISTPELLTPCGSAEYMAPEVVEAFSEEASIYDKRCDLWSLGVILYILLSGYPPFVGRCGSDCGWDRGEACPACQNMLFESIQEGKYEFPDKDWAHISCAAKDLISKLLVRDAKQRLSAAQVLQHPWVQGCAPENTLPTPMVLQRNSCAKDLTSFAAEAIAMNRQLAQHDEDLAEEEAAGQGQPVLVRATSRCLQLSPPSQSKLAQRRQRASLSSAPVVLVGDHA
T5 sequence (P23443 whole entry): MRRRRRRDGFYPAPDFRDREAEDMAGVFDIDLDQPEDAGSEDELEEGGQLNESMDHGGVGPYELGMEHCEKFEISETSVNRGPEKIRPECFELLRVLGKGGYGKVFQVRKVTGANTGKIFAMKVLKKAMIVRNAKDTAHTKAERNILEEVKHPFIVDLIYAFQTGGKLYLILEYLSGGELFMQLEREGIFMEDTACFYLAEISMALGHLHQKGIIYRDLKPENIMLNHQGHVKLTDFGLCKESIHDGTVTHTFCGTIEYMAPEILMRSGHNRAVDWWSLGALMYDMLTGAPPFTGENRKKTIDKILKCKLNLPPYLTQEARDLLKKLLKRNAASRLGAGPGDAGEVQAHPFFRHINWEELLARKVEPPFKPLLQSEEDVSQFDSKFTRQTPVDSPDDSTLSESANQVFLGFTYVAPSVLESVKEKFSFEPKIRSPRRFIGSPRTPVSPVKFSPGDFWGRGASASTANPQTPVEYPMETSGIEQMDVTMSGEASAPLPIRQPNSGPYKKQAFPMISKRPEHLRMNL
T4 sequence (P10721 26-976): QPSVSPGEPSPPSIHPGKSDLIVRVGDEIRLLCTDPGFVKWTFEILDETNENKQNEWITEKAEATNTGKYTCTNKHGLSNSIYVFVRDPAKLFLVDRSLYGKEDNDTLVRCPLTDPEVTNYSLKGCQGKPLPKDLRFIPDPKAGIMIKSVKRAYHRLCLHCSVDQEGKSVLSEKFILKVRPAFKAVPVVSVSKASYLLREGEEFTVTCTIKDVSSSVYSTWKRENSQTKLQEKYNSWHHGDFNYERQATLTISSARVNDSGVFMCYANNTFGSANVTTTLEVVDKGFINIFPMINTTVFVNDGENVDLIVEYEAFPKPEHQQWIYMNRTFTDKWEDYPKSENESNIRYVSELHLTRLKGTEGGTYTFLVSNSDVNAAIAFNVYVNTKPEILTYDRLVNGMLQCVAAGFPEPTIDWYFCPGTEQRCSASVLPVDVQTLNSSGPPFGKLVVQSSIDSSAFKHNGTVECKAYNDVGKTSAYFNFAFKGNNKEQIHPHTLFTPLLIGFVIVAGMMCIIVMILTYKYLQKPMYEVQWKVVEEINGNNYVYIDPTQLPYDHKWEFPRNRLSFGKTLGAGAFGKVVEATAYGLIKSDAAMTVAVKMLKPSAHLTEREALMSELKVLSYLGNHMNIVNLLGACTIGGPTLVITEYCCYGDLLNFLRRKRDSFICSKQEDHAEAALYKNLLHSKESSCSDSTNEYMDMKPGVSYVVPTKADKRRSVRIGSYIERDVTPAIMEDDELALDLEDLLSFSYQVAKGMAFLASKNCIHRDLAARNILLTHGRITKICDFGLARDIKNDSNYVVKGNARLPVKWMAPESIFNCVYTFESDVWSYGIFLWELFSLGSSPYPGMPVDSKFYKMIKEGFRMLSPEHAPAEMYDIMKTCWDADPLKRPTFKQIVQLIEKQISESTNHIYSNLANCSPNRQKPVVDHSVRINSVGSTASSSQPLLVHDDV

Compound | remaining binding at 1 µM [1] [%] | remaining binding at 1 µM ([2]; ABL1(F317L)-nonphosphorylated) [%] | remaining binding at 1 µM ([2]; ABL1(F317L)-phosphorylated) [%] | remaining binding at 1 µM [3] [%] | remaining binding at 1 µM ([4]; KIT-autoinhibited) [%] | remaining binding at 1 µM ([4]; KIT) [%] | remaining binding at 1 µM [5] [%] | remaining binding at 1 µM [6, 13] [%] | remaining binding at 1 µM [6, 14] [%] | remaining binding at 1 µM [7] [%] | remaining binding at 1 µM [8] [%] | remaining binding at 1 µM [9] [%] | remaining binding at 1 µM [10] [%] | remaining binding at 1 µM [11] [%] | remaining binding at 1 µM [12] [%]
CNc1nc(Nc2ccc(C(=O)N3CCOCC3)cc2OC)nc2[nH]cc(C#N)c12 [Example 1, 2-((2-methoxy-4-(morpholine-4-carbonyl)phenyl)amino)-4-(methylamino)-7H-pyrrolo[2,3-d]pyrimidine-5-carbonitrile] | 75 | 91 | 48 | 97 | 59 | 48 | 70 | 80 | 66 | 94 | 47 | 88 | 31 | 62 | 33
CC1(Nc2nc(Nc3cnn([C@H]4CCN(C5COC5)C[C@@H]4F)c3Cl)nc3[nH]cc(C#N)c23)CC1 [Example 52, 2-((5-chloro-1-((3S,4S)-3-fluoro-1-(oxetane-3-yl)piperidine-4-yl)-1H-pyrazole-4-yl)amino)((1-methylcyclopropyl)amino)-7H-pyrrolo[2,3-d]pyrimidine-5-carbonitrile] | 9.7 | 16 | 0 | 1 | 0.1 | 0.15 | 52 | 0 | 7.2 | 14 | 1.1 | 100 | 5.5 | 0 | 9.9
CCNc1nc(Nc2ccc(C(=O)N3CCC(N4CCOCC4)CC3)cc2OC)nc2[nH]cc(C(F)(F)F)c12 [Example 104, (4-((4-(ethylamino)-5-(trifluoromethyl)-7H-pyrrolo[2,3-d]pyrimidine-2-yl)amino)-3-methoxyphenyl)(4-morpholinopiperidine-1-yl)methanone] | 92 | 74 | 35 | 86 | 74 | 56 | 80 | 100 | 100 | 100 | 75 | 100 | 39 | 100 | 0.75
